Reference: US20220241378A1, “COMPOSITIONS AND METHODS FOR TREATMENT OF CHRONIC GRANULOMATOUS DISEASE” (priority 2019, published 2022)

Tested on: C57BL/6 and p47phox-/- mice infected intranasally with A. fumigatus conidia
Test: Lung inflammation model: C57BL/6 and p47phox-/- mice infected intranasally with A. fumigatus
Type: in vivo
Method: In vivo models mimicking human pathology such as lung and gut inflammation were prepared. A model of lung inflammation was tested using C57BL/6 and p47phox-/- mice. The mice were infected with A. fumigatus intranasally and treated them with Tβ4 for 7 consecutive days starting a week after the infection. LC3-II (FIG. 1F) and DAPK1 (FIG. 1G) expression were both defective in p47phox-/- mice, but restored by Tβ4 and ablated (LC3-II) upon siTβ4 (FIGS. 10A and 10B). In addition, gut inflammation was tested using the same mouse model. Acute colitis in p47phox-/- mice was initiated by administering […] in drinking water for 7 days followed by 7 days of DSS-free autoclaved water. Subsequently, Tβ4 was therapeutically administered daily for 7 days, after DSS treatment, at the time at which mice started to lose weight. Consistent with previous findings (de Luca et al., 2014), LC3-II (FIG. 1H) and DAPK1 (FIG. 1I) expression were both defective in the colon ofp47phox-/- mice with colitis as opposed to WT mice but restored upon treatment with T134 (FIGS. 1H and 1I). DAPK1 expression in colon lysates of C57BL/6 and p47^phox-/- mice subjected to DSS-induced colitis for a week and treated intraperitoneally with 5 mg/kg Tβ4 for 7 consecutive days after DSS treatment, n=6-10 mice per group. Data are presented as mean ±SD and are representative of two experiments. Mice were categorized as Naive (uninfected or untreated mice) or None (infected mice). For immunoblotting, normalization was performed on mouse β-actin or Gapdh and corresponding pixel density or ratio is depicted. For immunofluorescence, nuclei were counterstained with DAPI. Photographs were taken with a high-resolution microscope (Olympus BX51), 40× and 100× magnification. LC3 mean fluorescence intensity (MFI) was measured with the ImageJ software. In FIGS. 1F-1H, n=6-10 mice per group. Data are presented as mean ±SD and are representative of two experiments. Naïve, uninfected or untreated mice. None, infected mice.
Viable conidia from the A. fumigatus Af293 strain were obtained as described (De Luca et al., 2012). Mice were anesthetized in a plastic cage by inhalation of 3% isoflurane (Forane Abbot) in oxygen before intranasal instillation of 2×10^7 resting conidia/20 μl saline. For survival curves, p47^phox-/- mice were challenged with […] conidia/20 μl saline. Tβ4 was administered intraperitoneally (i.p.) at the dose of 5 mg/kg at an effective dose as described (Badamchian et al., Thymosin beta(4) reduces lethality and down-regulates inflammatory mediators in endotoxin-induced septic shock. Int Immunopharmacol, 2003 3(8): p. 1225-33), every day in concomitance with (days 0→7) or after (days 7→14) infection. DMOG (Merck Millipore) was administered i.p. at the dose of 8 mg/mouse concomitantly to the infection. For Hif1a silencing, each mouse received intranasal administration of 10 mg/kg unmodified siRNA [Duplex name mm.Ri.Hif1a.13.1 (IDT); 5′-[…]-3′; 3′-[…] -5′] and Tmsb4x silencing [Duplex name mm.Ri.Tmsb4x.13.1; 5′-[…]-3′; 3′-[…] -5′], or equivalent dose of nonspecific control siRNA duplex in a volume of 20 μl of duplex buffer (IDT). Intranasal siRNA was given once the day before infection and 1, 3 and 5 days after infection (Iannitti et al., 2013 Hypoxia promotes danger-mediated inflammation via receptor for advanced glycation end products in cystic fibrosis. Am J Respir Crit Care Med 188:1338-1350). It is known that lung-specific siRNA delivery can be achieved by intranasal administration without the use of viral vectors or transfection agents in vivo (Iannitti et al., 2013 Th17/Treg imbalance in murine cystic fibrosis is linked to indoleamine 2,3-dioxygenase deficiency but corrected by kynurenines. Am J Respir Crit Care Med 187:609-620). Mice were sacrificed 7 or 14 days post infection. Fungal burden was determined by qPCR and expressed as conidial equivalents (CE). Lung tissue was aseptically removed and homogenized in 3 ml of sterile saline. […]

[1] = following Tβ4 treatment, thoracic lymph nodes, lung homogenates
[2] = lung homogenates, ELISA (FIG. 4E)

Thymosin β4 [Tβ4]
HIF-1α protein in lung (CGD (p47phox-/-) mice, Tβ4 7 days concomitantly to infection (FIG. 2E, 2F)): restored | fungal growth in the lung (both types of mice (C57BL/6 and p47phox-/-), 5 mg/kg i.p. (FIG. 4A)): reduced | pathogenic Th2/Th17/Th9 cell responses [1]: down-regulated | protective Th1/Treg cell responses [1]: promoted | NLRP3 expression in lung (infected mice (FIG. 4D)): down-regulated | IFNy production [2]: reduced | IL-1β production [2]: reduced | IL-17A production [2]: reduced | TNF-α production [2]: reduced | expression of genes of angiogenic signaling (Angpt2, Tie2, Vegfa), remodeling (Fgf2), hormonal regulation (Epo), cell migration (Cxcr4) (lungs of Aspergillus-infected mice (FIG. 3C)): upregulated | gross lung pathology and histological examination (p47phox-/- mice after Tβ4 administration (FIG. 4C)): No signs of inflammatory lung injury and granuloma formation | HIF-1α-dependent glycolytic genes (p47phox-/- mice, 5 mg/kg Tβ4 (FIG. 8A)): not increased | Irg1 expression (p47phox-/- mice, 5 mg/kg Tβ4 (FIG. 8B)): increased | LC3-II expression in lung (p47phox-/- mice, 5 mg/kg i.p. 7 consecutive days starting a week after infection (FIG. 1F)): restored | DAPK1 expression in lung (p47phox-/- mice, 5 mg/kg i.p. 7 consecutive days starting a week after infection (FIG. 1G)): restored
